Data published in BindingDB's records for doi:10.1016/s0960-894x(02)00078-1 (Xenova, 2002).

Each compound was assayed against Plasminogen activator inhibitor 1 (Homo sapiens, UniProt P05121) (assay: ChEBML_222791).
From the text: Inhibitory activity against human plasminogen activator inhibitor-1 (PAI-1) evaluated by chromogenic assay.

Chain of Plasminogen activator inhibitor 1 (P05121 whole entry): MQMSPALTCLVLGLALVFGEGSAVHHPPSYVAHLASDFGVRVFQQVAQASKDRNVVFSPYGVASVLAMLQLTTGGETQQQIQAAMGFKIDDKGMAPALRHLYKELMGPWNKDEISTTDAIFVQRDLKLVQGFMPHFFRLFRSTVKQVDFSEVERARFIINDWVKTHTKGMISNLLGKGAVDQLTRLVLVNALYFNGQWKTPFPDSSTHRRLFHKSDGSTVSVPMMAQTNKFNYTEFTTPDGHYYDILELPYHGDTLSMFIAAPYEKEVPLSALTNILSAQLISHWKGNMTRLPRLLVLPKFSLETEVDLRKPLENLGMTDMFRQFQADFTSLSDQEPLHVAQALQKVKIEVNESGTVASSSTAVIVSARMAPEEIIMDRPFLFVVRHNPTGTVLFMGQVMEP

Row | Compound | IC50
1 | CC(=O)Nc1ccc(N2CC(=O)C(C(=O)Nc3ccc(OCCCCCCCC(=O)O)cc3)C2=O)cc1 (centres undefined) [8-(4-{[1-(4-Acetylamino-phenyl)-4-hydroxy-2-oxo-2,5-dihydro-1H-pyrrole-3-carbonyl]-amino}-phenoxy)-octanoic acid] | > 50 µM
2 | COC(=O)CCCCCCCOc1ccc(NC(=O)C2C(=O)CN(c3ccc(Cl)cc3)C2=O)cc1 (centres undefined) [8-(4-{[1-(4-Chloro-phenyl)-4-hydroxy-2-oxo-2,5-dihydro-1H-pyrrole-3-carbonyl]-amino}-phenoxy)-octanoic acid methyl ester] | > 50 µM
3 | O=C(O)CCCCCCCOc1ccc(NC(=O)C2C(=O)CN(c3ccc(N4CCOCC4)cc3)C2=O)cc1 (centres undefined) [8-(4-{[4-Hydroxy-1-(4-morpholin-4-yl-phenyl)-2-oxo-2,5-dihydro-1H-pyrrole-3-carbonyl]-amino}-phenoxy)-octanoic acid] | > 50 µM
4 | O=C(O)CCCCCCCOc1ccc(NC(=O)C2C(=O)NC(Cc3ccc(O)cc3)C2=O)cc1 (centres undefined) [8-(4-{[4-Hydroxy-5-(4-hydroxy-benzyl)-2-oxo-2,5-dihydro-1H-pyrrole-3-carbonyl]-amino}-phenoxy)-octanoic acid] | > 50 µM
5 | O=C(O)CCCCCCCOc1ccc(NC(=O)C2C(=O)CN(Cc3ccccc3)C2=O)cc1 (centres undefined) [8-{4-[(1-Benzyl-4-hydroxy-2-oxo-2,5-dihydro-1H-pyrrole-3-carbonyl)-amino]-phenoxy}-octanoic acid] | > 50 µM
6 | CC1C(=O)C(C(=O)Nc2ccc(OCCCCCCCC(=O)O)cc2)C(=O)N1c1ccccc1 (centres undefined) [8-{4-[(4-Hydroxy-5-methyl-2-oxo-1-phenyl-2,5-dihydro-1H-pyrrole-3-carbonyl)-amino]-phenoxy}-octanoic acid] | > 50 µM

Results, then the compound that gave them:

Row | IC50 | Compound
7 | > 50 µM | O=C(O)CCCCCCCOc1ccc(NC(=O)C2C(=O)CN(c3ccccc3Cl)C2=O)cc1 (centres undefined) [8-(4-{[1-(2-Chloro-phenyl)-4-hydroxy-2-oxo-2,5-dihydro-1H-pyrrole-3-carbonyl]-amino}-phenoxy)-octanoic acid]
8 | > 50 µM | COc1ccccc1N1CC(=O)C(C(=O)Nc2ccc(OCCCCCCCC(=O)O)cc2)C1=O (centres undefined) [8-(4-{[4-Hydroxy-1-(2-methoxy-phenyl)-2-oxo-2,5-dihydro-1H-pyrrole-3-carbonyl]-amino}-phenoxy)-octanoic acid]
9 | > 50 µM | O=C(O)CCCCCCCOc1ccc(NC(=O)C2C(=O)CN(c3cccc4ccccc34)C2=O)cc1 (centres undefined) [8-{4-[(4-Hydroxy-1-naphthalen-1-yl-2-oxo-2,5-dihydro-1H-pyrrole-3-carbonyl)-amino]-phenoxy}-octanoic acid]
